Test results published in PMC9866601, “Constituents of Pulicaria inuloides and Cytotoxic Activities of Two Methoxylated Flavonols” (Molecules, 2023).
Where two headings read alike, the source gives them in different places.

What was measured:
HeLa cells = tested on: HeLa cells; set-up: method as in PMID 30673162; conditions: in vitro; cited from earlier work
A549 cells = tested on: A549 cells; set-up: method as in PMID 30673162; conditions: in vitro; cited from earlier work
cholinesterase = tested on: cholinesterase; set-up: method as in PMID 30673162; conditions: cited from earlier work
PNT-2 cells = assay: MTT cytotoxicity assay, normal prostate epithelial cells PNT-2; format: cell-based; conditions: Homo sapiens, PNT2
Description: (§1) Cytotoxic activity was tested on human cancer and normal cells, namely: prostate cancer cell lines DU145 (ATCC HTB-81) and PC3 (ATCC CRL-1435), prostate epithelial cells PNT-2 (ECACC 95012613), melanoma cell lines A375 (ATCC CRL-1619) and HTB140 (ATCC Hs 294T) and skin keratinocytes HaCaT (obtained as a kind gift from prof. Marta Michalik, Department of Cell Biology, Jagiellonian University). DU145 cells were grown in a modified Eagle’s medium with a low (1.0 g/L) glucose concentration, as well as PC3 and PNT-2 cells in Dulbecco’s modified Eagle’s media: F12 HAM nutrient mixture. At the same time, melanoma cells and keratinocytes were maintained in a modified Eagle’s medium with a high (4.5 g/L) glucose concentration. The culture media (all supplied by Sigma-Aldrich Co.; St. Louis, MO, USA) contained antibiotics and 10% fetal bovine serum (FBS). All cultures were maintained at 37 °C in a humidified 5% CO2-containing atmosphere.
(§2) The examined flavonols were diluted in the culture media from freshly made stock solutions in MeOH (10 mg/mL) to the working concentrations (from 5 to 100 μg/mL).
(§3) Cells were seeded in 96-well plates (1.5 × 10^4 cells/well) and preincubated for 24 h (37 °C, 5% CO2). Then, the culture medium was replaced with a fresh medium containing different concentrations of the tested compounds (5–100 µg/mL). The incubation lasted 48 h. Cell viability was measured by an MTT assay, as previously described. The absorbance at 490 nm was measured using a Synergy II Biotek (BioTek Instruments, Winooski, VT, USA) microplate reader. Cytotoxic activity was assessed based on the cell viability expressed as the percentage of living cells. The results were the means of three independent measurements (±SD). Doxorubicin (Ebewe Pharma GmbH., Unterach, Austria) was used as a reference cytostatic drug. The IC50 values were determined by plotting the percentage viability of the cells versus the concentration and adequate calculations made using either Excel or the AAT Bioquest website program (https://www.aatbio.com/tools/ic50-calculator, accessed on 4 September 2022).

DU145 cells = assay: MTT cytotoxicity assay, prostate cancer cells DU145; format: cell-based; conditions: Homo sapiens, DU-145
Description: as §1, §2, §3

PC3 cells = assay: MTT cytotoxicity assay, prostate cancer cells PC3; format: cell-based; conditions: Homo sapiens, PC-3, 48 h, 48 h treatment
Description: as §1, §2, §3

HaCaT cells = assay: MTT cytotoxicity assay, skin keratinocytes HaCaT; format: cell-based, human; conditions: for IC50: Homo sapiens, HaCaT
Description: as §1, §2, §3

A375 cells = assay: MTT cytotoxicity assay, melanoma cells A375; format: cell-based, human; conditions: for IC50: Homo sapiens, A-375
Description: as §1, §2, §3

HTB140 cells = assay: MTT cytotoxicity assay, melanoma cells HTB140; format: cell-based, human; conditions: for IC50: Homo sapiens
Description: as §1, §2, §3

[1] = 48 h treatment, 5–100 μg/mL, MTT, read-out: IC50 PNT-2
[2] = 48 h treatment, 5–100 μg/mL, MTT, read-out: IC50 DU145
[3] = 48 h treatment, 5–100 μg/mL, MTT, read-out: IC50 HaCaT
[4] = 48 h treatment, 5–100 μg/mL, MTT, read-out: IC50 A375
[5] = 48 h treatment, 5–100 μg/mL, MTT, read-out: IC50 HTB140

For `C=C1CC/C=C(/CO)C(=O)C[C@@H]2[C@@H]1CC2(C)C` [Compound 8, (1S,9R)-14-hydroxycaryophyll-5(6)-en-7-one], the “cytotoxic activity against HeLa cells” value (HeLa cells) is given as “moderate cytotoxic activity”, the “cytotoxic activity against A549 cells” value (A549 cells) is given as “moderate cytotoxic activity” and the anticholinesterase activity (cholinesterase) is given as “weak anticholinesterase activity”.

For `C=C1CC/C=C(/CO)C(=O)C[C@@H]2[C@@H]1C[C@]2(C)COC(C)=O` [Compound 9, (1S,9R)-12β-acetoxy-14-hydroxycaryophyll-5(6)-en-7-one], the “cytotoxic activity against HeLa cells” value (HeLa cells) is listed as “moderate cytotoxic activity”, the “cytotoxic activity against A549 cells” value (A549 cells) is listed as “moderate cytotoxic activity” and the anticholinesterase activity (cholinesterase) is listed as “weak anticholinesterase activity”.

In the case of `COc1cc(-c2oc3cc(OC)c(O)c(O)c3c(=O)c2OC)ccc1O` [Compound 11, quercetagetin 3,7,3′-trimethyl ether], the IC50 (PNT-2 cells; [1]) is reported as 82.4 ± 2.42 µg/mL, the IC50 (PNT-2 cells; abstract, value in µM, read-out: IC50 PNT2 (remaining cell lines)) is reported as over 150 µM and the IC50 (DU145 cells; [2]) is reported as 54.87 ± 0.23 µg/mL. It also gave an IC50 (DU145 cells; abstract, value in µM, read-out: IC50 DU145 (remaining cell lines)) of over 150 µM, an IC50 (PC3 cells; 5–100 μg/mL) of 16.8 ± 0.77 µg/mL and an IC50 (PC3 cells; value in µM) of 46.6 µM. For the same compound, the IC50 (HaCaT cells; [3]) was over 100 µg/mL, the IC50 (HaCaT cells; abstract, value in µM, read-out: IC50 HaCaT (remaining cell lines)) was over 150 µM and the “cytotoxic activity toward keratinocytes” value (HaCaT cells; dose range of 5–100 μg/mL) was “not active”. The IC50 (A375 cells; [4]) was over 100 µg/mL, the IC50 (A375 cells; abstract, value in µM, read-out: IC50 A375 (remaining cell lines)) was over 150 µM and the “cytotoxic activity toward melanoma cells (A375)” value (A375 cells; dose range of 5–100 μg/mL) was “not active”. For the same compound, the IC50 (HTB140 cells; [5]) was over 100 µg/mL, the IC50 (HTB140 cells; abstract, value in µM, read-out: IC50 HTB140 (remaining cell lines)) was over 150 µM and the “cytotoxic activity toward melanoma cells (HTB140)” value (HTB140 cells; dose range of 5–100 μg/mL) was “not active”.

For `COc1cccc2c1C(=O)c1c(O)c3c(c(O)c1C2=O)C[C@@](O)(C(=O)CO)C[C@@H]3O[C@H]1C[C@H](N)[C@H](O)[C@H](C)O1` [Doxorubicin, reference compound], the IC50 (PNT-2 cells; [1]) was 1.38 µg/mL, the IC50 (DU145 cells; [2]) was 3.18 µg/mL and the IC50 (PC3 cells; 5–100 μg/mL) was over 50 µg/mL. For the same compound, the IC50 (HaCaT cells; [3]) was 4.68 µg/mL, the IC50 (A375 cells; [4]) was 0.59 µg/mL and the IC50 (HTB140 cells; [5]) was 5.71 µg/mL.
